Publication PMC12381781, “Structural and functional insights into the selective inhibition of mutant tau aggregation by purpurin and oleocanthal in frontotemporal dementia” (Protein Science : A Publication of the Protein Society, 2025)

Tests used:
Format in all cases: biochemical
[1] = test system: preformed R2R3 (V287I) fibrils; assay: Elongation of preformed R2R3 (V287I) fibrils, ThT; settings: R2R3 V287I pre-aggregated 24 h, compound 10 μM
Experimental: (§1) Peptides were pre‐aggregated for 24 h with aggregation kinetics monitored by ThT fluorescence, after which 10 μM PUR or OLC was added, followed by an additional 24–30 h of incubation (Figure 4a). Aggregation kinetics was monitored by ThT fluorescence, and elongation was quantified as the AUC following compound addition, normalized to each replicate's maximum pre‐treatment fluorescence (Figure 4b). […] WT peptide fibril elongation was reduced to 15.5 ± 2.8% (PUR) and 45.2 ± 3.2% (OLC), and P301L peptide fibril elongation was limited to 31.8 ± 0.6% (PUR) and 85.6 ± 2.2% (OLC) (Figure 4b). Fluorescence microscopy imaging further confirmed the presence of reduced ThT‐positive aggregates following the addition of PUR and OLC (Figure S12). Similar inhibition trends, with PUR outperforming OLC, were also observed for V287I and N279K peptides (Figure S12).
Figure S13. […] (a) ThT fluorescence kinetics of pre-aggregated R2R3 (V287I and N279K ) tau peptides treated with PUR or OLC (10 µM). Peptides were first allowed to aggregate for 24 h, followed by compound addition and continued incubation for an additional 24-30 h. […] Curves are normalized to each replicate’s maximum pre-treatment ThT fluorescence. […] (b) Aggregation levels post-treatment, expressed as a percentage of control (untreated fibrils), calculated from the AUC after compound addition. […]

[2] = test system: preformed R2R3 (P301L) fibrils; assay: Elongation of preformed R2R3 (P301L) fibrils, ThT; settings: R2R3 P301L pre-aggregated 24 h, compound 10 μM; for fibril elongation, aggregation post-treatment as percentage of control (AUC after compound addition): further 24–30 h; for ThT-stained aggregates from post-treatment samples, confocal imaging: further 24 h
Experimental: as §1
FIGURE 4 Purpurin (PUR) and oleocanthal (OLC) inhibit elongation of preformed wild‐type (WT) and P301L tau fibrils. (a) The thioflavin T (ThT) fluorescence kinetics of pre‐aggregated R2R3 (WT and P301L) tau peptides treated with PUR or OLC (10 μM). Peptides were first allowed to aggregate for 24 h, followed by compound addition and continued incubation for an additional 24–30 h. Vertical dashed lines indicate the time point of compound addition. Curves are normalized to each replicate's maximum pre‐treatment ThT fluorescence. Source data are provided in the Data Availability Statement section. Mean ± SEM (n ≥ 3). (b) Aggregation levels post‐treatment, expressed as a percentage of control (untreated fibrils), calculated from the area under the curve after compound addition. Mean ± SEM (n ≥ 3). ***p < 0.001, **p < 0.01, one‐way ANOVA (Tukey's post hoc test).
Figure S12. Confocal imaging of ThT-stained aggregates from post-treatment samples in Figure 4. R2R3 (WT and P301L) tau peptides were incubated for 24 h to allow initial aggregation, followed by the addition of PUR or OLC (10 µM). After a further 24 h, reaction mixtures from compound-treated wells were collected, embedded in 0.05% low-melting agarose, and processed for imaging as described in Figure S11. […] Scale bar: 50 μm.

R2R3 (P301L) tau peptide = R2R3 (P301L) tau peptide (Homo sapiens, UniProt P10636, P618L); assay: ThT aggregation assay of monomeric R2R3 (P301L) peptide; settings: for ThT-stained aggregates, confocal imaging: R2R3 P301L, end of ThT assay
Chain of R2R3 (P301L) tau peptide (P10636 592-653 P618L): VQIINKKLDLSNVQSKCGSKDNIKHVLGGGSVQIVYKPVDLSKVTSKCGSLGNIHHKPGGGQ
Experimental: The aggregation kinetics of tau peptides were monitored using a ThT assay. A 40 μL reaction mixture containing 15 μM ThT (Sigma‐Aldrich, Cat. # T3516‐5G) and 50 μM peptide in the absence (control) or presence of 0.1 μM, 1 μM, and 10 μM PUR or OLC was prepared on ice in aggregation buffer (20 mM Tris [pH 7.4], 100 mM NaCl, 1 mM ethylenediaminetetraacetic acid [EDTA]) containing 5 μM heparin (Sigma‐Aldrich, Cat. #H4784). dithiothreitol (DTT) was excluded to avoid its differential effects on the aggregation kinetics of tau peptides containing Cys291 or Cys322 and to prevent peroxide generation by redox‐active compounds like PUR, which can lead to oxidative artifacts and false‐positive inhibition signals, as reported in our previous study (Annadurai, Malina, Salmona, et al., [2022]). This mixture was then dispensed into a clear‐bottom, black 384‐well ViewPlate (Revvity, Waltham, MA, United States; Part # 6007460) and sealed with a TopSealA‐PLUS (Revvity) to prevent evaporation.
Aggregation was monitored using EnSpire Multimode Plate Reader (Revvity) at 37°C with constant agitation (1000 rpm). To minimize condensation, the upper heater temperature was set to 2°C higher than the lower heater temperature. ThT fluorescence (ThT—λ ex: 460–490 nm and λem: 500–550 nm) was recorded every 5–10 min for 48 h.
ThT fluorescence curves were fitted to a sigmoidal function in GraphPad Prism (version 10, San Diego, CA, USA) using the following equation:
Y=Top/1+expV50–X/Slope , where Y is the ThT fluorescence intensity, X is time (h), Top is the maximum fluorescence intensity, V50 is the time to reach 50% of Top, and Slope describes the steepness of the aggregation transition. Baseline fluorescence at the start of the measurements was relatively low across samples and was not separately fitted. In samples showing early increases in fluorescence, the aggregation trajectory was modeled directly without introducing an independent baseline parameter.
The V50 value obtained from each replicate was used as the aggregation t 1/2 for statistical analysis.
To evaluate the effect of compounds on the extent of aggregation, the AUC was calculated for each replicate ThT fluorescence curve using GraphPad Prism. AUC values were then normalized to the mean AUC of the untreated control group and expressed as “aggregation (% of control),” serving as an indirect and comparative measure of fibril formation.
Figure S11. Confocal imaging of ThT-stained aggregates formed in the presence of PUR and OLC (corresponding to Figure 3). At the end of the ThT aggregation assay, reaction mixtures containing WT or mutant R2R3 tau peptides (P301L, V287I, N279K), incubated in the absence (CTL) or presence of 10 µM PUR or OLC, were collected from assay wells, embedded in 0.05% low-melting agarose, and imaged. ThT fluorescence was acquired using a Yokogawa Cell Voyager 7000S high-content imaging system equipped with a 20× objective (Ex: 460–490 nm, Em: 500–550 nm) and analyzed with Signals Image Artist (Revvity). […] Scale bar: 20 μm.

Structure (SMILES) | elongation of preformed fibrils [1] | fibril elongation, aggregation post-treatment as percentage of control (AUC after compound addition) [2] [%] | ThT-stained aggregates from post-treatment samples, confocal imaging [2] | aggregation (% of control), AUC of ThT fluorescence (R2R3 (P301L) tau peptide; R2R3 P301L 50 μM, compound 0.1 μM) [%] | aggregation (% of control), AUC of ThT fluorescence (R2R3 (P301L) tau peptide; R2R3 P301L 50 μM, compound 10 μM) | ThT-stained aggregates, confocal imaging (R2R3 (P301L) tau peptide; compound 10 μM) | remaining activity at 0.1 µM (R2R3 (P301L) tau peptide; R2R3 P301L 50 μM, compound 0.1 μM, read-out: aggregation (% of control), AUC of ThT fluorescence) [%] | remaining activity at 10 µM (R2R3 (P301L) tau peptide; R2R3 P301L 50 μM, compound 10 μM, read-out: aggregation (% of control), AUC of ThT fluorescence) [%]
C/C=C(/C=O)[C@@H](CC=O)CC(=O)OCCc1ccc(O)cc1 [OLC, oleocanthal] | inhibit the elongation | 85.6 ± 2.2 | either a complete absence or a marked reduction in ThT signal | 8 | below 10% | marked reduction in ThT signal | – | –
O=C1c2ccccc2C(=O)c2c(O)c(O)cc(O)c21 [PUR, purpurin] | inhibit the elongation | 31.8 ± 0.6 | either a complete absence or a marked reduction in ThT signal | – | – | marked reduction in ThT signal | 47 | < 10
